Laboratory results published in patent US8163737B2 (Vertex Pharmaceuticals Incorporated, priority 2006, dated 2012).

What was measured:
[1] = biological target: endogenous CGRP receptor (Homo sapiens, UniProt O60894+Q16602); assay: CGRP functional antagonism using SK-N-MC-BLA (4C10), β-lactamase transcriptional reporter assay; format: cell-based; details: SK-N-MC (4C10) cells, inhibition of β-lactamase expression in the presence of 200 pM CGRP
[2] = biological target: T1, CGRP receptor (SK-N-MC membrane) (Homo sapiens, UniProt O60894+Q16602); assay: I125-CGRP binding displacement assay on purified SK-N-MC membrane
T1 construct: Purified SK-N-MC membrane was purchased from Perkin Elmer; purchased Perkin Elmer; host or cells: SK-N-MC membrane
In short: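 Human SK-N-MC membranes incubated with compounds and I125-CGRP for 2 h at room temperature in 25 mM Tris-HCl pH 7.4, 5 mM MgCl2, 0.1% BSA, 0.05% Tween, then filtered and counted. Nonspecific binding defined with 1 uM unlabelled CGRP; percent displacement fitted to curves.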

endogenous CGRP receptor, sequence (Q16602 23-461): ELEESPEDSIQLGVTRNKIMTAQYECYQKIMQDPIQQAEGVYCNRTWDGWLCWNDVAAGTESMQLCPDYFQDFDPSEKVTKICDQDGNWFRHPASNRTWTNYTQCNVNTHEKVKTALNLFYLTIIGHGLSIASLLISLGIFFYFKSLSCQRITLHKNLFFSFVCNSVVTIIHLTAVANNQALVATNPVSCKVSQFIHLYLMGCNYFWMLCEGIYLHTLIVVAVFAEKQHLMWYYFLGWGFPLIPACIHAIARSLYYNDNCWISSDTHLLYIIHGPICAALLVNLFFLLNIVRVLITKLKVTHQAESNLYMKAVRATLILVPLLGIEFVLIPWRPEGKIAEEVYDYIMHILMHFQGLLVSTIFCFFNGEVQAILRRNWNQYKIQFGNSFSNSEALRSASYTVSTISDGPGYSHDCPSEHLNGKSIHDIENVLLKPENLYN
endogenous CGRP receptor, sequence (O60894 27-148): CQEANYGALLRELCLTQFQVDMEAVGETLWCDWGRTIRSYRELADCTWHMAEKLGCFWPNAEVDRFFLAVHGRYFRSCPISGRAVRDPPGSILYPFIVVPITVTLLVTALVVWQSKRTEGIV
T1 sequence (Q16602 23-461): as the sequence (Q16602 23-461) above
T1 sequence (O60894 27-148): as the sequence (O60894 27-148) above

Compound | IC50 [1] [µM] | Ki [2] [µM]
CC(C)(C)CCN1C(=O)C(CC(=O)N2CCC(N3CCc4ccccc4NC3=O)CC2)SC1c1cccc(F)c1N1CCN(C2CC2)CC1 (stereo not shown) [Compound 389] | < 1 | < 1
CC(C)(C)CCN1C(=O)C(CC(=O)N2CCC(N3CCc4ccccc4NC3=O)CC2)SC1c1cccc(F)c1N1CCNCC1 (stereo not shown) [Compound 391] | > 5 | > 5
CN1CCN(c2ccc(F)cc2[C@@H]2S[C@@H](CC(=O)N3CCC(n4c(=O)[nH]c5ncccc54)CC3)C(=O)N2CCC(C)(C)C)CC1 [Compound 394] | < 1 | < 1
CN1CCN(c2ccc(F)cc2[C@H]2S[C@@H](CC(=O)N3CCC(n4c(=O)[nH]c5ncccc54)CC3)C(=O)N2CCC(C)(C)C)CC1 [Compound 397] | > 5 | > 5
CN(c1ccccc1C1SC(CC(=O)N2CCC(n3c(=O)[nH]c4ncccc43)CC2)C(=O)N1CCC(C)(C)C)[C@@H]1CCN(Cc2ccccc2)C1 (stereo partly shown) [Compound 402] | < 1 | < 1
CN(c1ccccc1C1SC(CC(=O)N2CCC(N3CCc4ccccc4NC3=O)CC2)C(=O)N1CCC(C)(C)C)[C@H]1CCN(Cc2ccccc2)C1 (stereo partly shown) [Compound 403] | 1 to 5 | < 1
CN(C)[C@@H]1CCN(c2ccccc2C2SC(CC(=O)N3CCC(N4CCc5ccccc5NC4=O)CC3)C(=O)N2CCC(C)(C)C)C1 (stereo partly shown) [Compound 405] | 1 to 5 | < 1
CN(C)[C@H]1CCN(c2ccccc2C2SC(CC(=O)N3CCC(N4CCc5ccccc5NC4=O)CC3)C(=O)N2CCC(C)(C)C)C1 (stereo partly shown) [Compound 407] | < 1 | < 1
CN(c1ccccc1C1SC(CC(=O)N2CCC(N3CCc4ccccc4NC3=O)CC2)C(=O)N1CCC(C)(C)C)[C@H]1CCN(Cc2ccccc2)C1 (stereo partly shown) [Compound 409] | > 5 | < 1
CC(C)(C)CCN1C(=O)C(CC(=O)N2CCC(N3CCc4ccccc4NC3=O)CC2)SC1c1ccccc1C1=CCNCC1 (stereo not shown) [Compound 414] | 1 to 5 | > 5
CC(C)(C)CCN1C(=O)C(CC(=O)N2CCC(n3c(=O)[nH]c4ncccc43)CC2)SC1c1ccccc1N1CCC(O)CC1 (stereo not shown) [Compound 415] | 1 to 5 | < 1
CC(C)N1CCN(c2c(F)cccc2[C@@H]2S[C@@](C)(CC(=O)N3CCC(N4CCc5ccccc5NC4=O)CC3)C(=O)N2CCC(C)(C)C)CC1 [Compound 431] | < 1 | < 1
CC(C)N1CCN(c2c(F)cccc2[C@H]2S[C@@](C)(CC(=O)N3CCC(N4CCc5ccccc5NC4=O)CC3)C(=O)N2CCC(C)(C)C)CC1 [Compound 432] | < 1 | < 1
CC(C)N1CCN(c2cccc(Cl)c2[C@H]2S[C@H](CC(=O)N3CCC(N4CCc5ccccc5NC4=O)CC3)C(=O)N2CCC(C)(C)C)CC1 [Compound 434] | < 1 | < 1
CC(C)(C)CCN1C(=O)[C@H](CC(=O)N2CCC(n3c(=O)[nH]c4ncccc43)CC2)S[C@H]1c1cccc(F)c1N1CCN(C(C)(C)C)CC1 [Compound 436] | < 1 | < 1
CC(C)(C)CCN1C(=O)[C@H](CC(=O)N2CCC(n3c(=O)[nH]c4ncccc43)CC2)SC1c1cccc(F)c1N1CCN(C(C)(C)C)CC1 (stereo partly shown) [Compound 437] | < 1 | < 1
CC(C)N1CCN(c2c(F)cccc2[C@H]2S[C@@](C)(CC(=O)N3CCC(n4c(=O)[nH]c5ncccc54)CC3)C(=O)N2CCC(C)(C)C)CC1 [Compound 446] | < 1 | < 1
CC(C)(C)CCN1C(=O)[C@H](CC(=O)N2CCC(N3CC(=O)NC3=O)CC2)S[C@H]1c1cccc(F)c1N1CCN(C(C)(C)C)CC1 [Compound 447] | < 1 | < 1
CN(C)C1CCN(c2c(F)cccc2[C@@H]2S[C@@H](CC(=O)N3CCC(n4c(=O)[nH]c5ncccc54)CC3)C(=O)N2CCC(C)(C)C)C1 (stereo partly shown) [Compound 456] | 1 to 5 | < 1
CC(C)(C)CCN1C(=O)[C@H](CC(=O)N2CCC(O)(c3ccc(Br)cc3)CC2)SC1c1cccc(F)c1N1CCN(C(C)(C)C)CC1 (stereo partly shown) [Compound 457] | < 1 | < 1
CNC1CCN(c2c(F)cccc2[C@H]2S[C@@H](CC(=O)N3CCC(n4c(=O)[nH]c5ncccc54)CC3)C(=O)N2CCC(C)(C)C)C1 (stereo partly shown) [Compound 458] | < 1 | < 1

Compound | IC50 [1] [µM] | Ki [2] [µM]
CNC1CCN(c2c(F)cccc2[C@@H]2S[C@@H](CC(=O)N3CCC(n4c(=O)[nH]c5ncccc54)CC3)C(=O)N2CCC(C)(C)C)C1 (stereo partly shown) [Compound 459] | < 1 | < 1
COc1ccc(C(=O)C2CCN(C(=O)C[C@@H]3SC(c4cccc(F)c4N4CCN(C(C)(C)C)CC4)N(CCC(C)(C)C)C3=O)CC2)cc1 (stereo partly shown) [Compound 461] | < 1 | < 1
CC(C)(C)CCN1C(=O)[C@H](CC(=O)N2CCC(n3c(=O)[nH]c4ncccc43)CC2)S[C@H]1c1cccc(F)c1N1CCC(O)C1 (stereo partly shown) [Compound 462] | < 1 | < 1
CC(C)(C)CCN1C(=O)[C@H](CC(=O)N2CCC(N3CCc4ccccc4NC3=O)CC2)SC1c1cccc(F)c1N1CCC(O)C1 (stereo partly shown) [Compound 463] | 1 to 5 | < 1
CC(C)(C)CCN1C(=O)[C@H](CC(=O)N2CCC(N3Cc4ccccc4NC3=O)CC2)S[C@H]1c1cccc(F)c1N1CCC(O)C1 (stereo partly shown) [Compound 469] | < 1 | < 1
CC(C)(C)CCN1C(=O)[C@H](CC(=O)N2CCC(n3c(=O)[nH]c4ncccc43)CC2)S[C@H]1c1cccc(F)c1N1CCC(N)C1 (stereo partly shown) [Compound 470] | < 1 | < 1
CC(C)(C)CCN1C(=O)[C@H](CC(=O)N2CCC(N3CCc4ccccc4NC3=O)CC2)SC1c1cccc(F)c1N1CCC(N)C1 (stereo partly shown) [Compound 471] | < 1 | < 1
C[C@@H]1CN(c2c(F)cccc2[C@H]2S[C@@H](CC(=O)N3CCC(N4CCc5ccccc5NC4=O)CC3)C(=O)N2CCC(C)(C)C)C[C@H](C)N1 [Compound 474] | 1 to 5 | < 1
CN1CCN(c2ccccc2C2SC(CC(=O)N3CC(N4Cc5ccccc5NC4=O)C3)C(=O)N2CCC(C)(C)C)CC1 (stereo not shown) [Compound 477] | > 5 | < 1
CC(C)(C)CCN1C(=O)[C@H](CC(=O)N2CCC(N3CCc4ccccc4NC3=O)CC2)SC1c1cc(F)cc(F)c1N1CCN(C(C)(C)C)CC1 (stereo partly drawn) [Compound 478, (5S)-2-(2-(4-tert-Butylpiperazin-1-yl)-3,5-difluorophenyl)-3-(3,3-dimethylbutyl)-5-(2-oxo-2-(4-(2-oxo-4,5-dihydro-1H-benzo[d][1,3]diazepin-3(2H)-yl)piperidin-1-yl)ethyl)thiazolidin-4-one] | < 1 | < 1
CC(C)(C)CCN1C(=O)[C@H](CC(=O)N2CCC(n3c(=O)[nH]c4ncccc43)CC2)SC1c1cccc(F)c1N1CCC(F)C1 (stereo partly shown) [Compound 480] | 1 to 5 | < 1
CC(C)(C)CCN1C(=O)[C@H](CC(=O)N2CCC(N3CCc4ccccc4NC3=O)CC2)SC1c1cccc(F)c1N1CCC(F)C1 (stereo partly shown) [Compound 481] | 1 to 5 | < 1
CC(C)(C)CCN1C(=O)[C@H](CC(=O)N2CCC(n3c(=O)[nH]c4ncccc43)CC2)SC1c1cccc(F)c1N1CCC(F)(F)C1 (stereo partly shown) [Compound 482] | 1 to 5 | < 1
CC(C)(C)CCN1C(=O)[C@H](CC(=O)N2CCC(N3CCc4ccccc4NC3=O)CC2)SC1c1cccc(F)c1N1CCC(F)(F)C1 (stereo partly shown) [Compound 483] | > 5 | < 1
CC(C)(C)CCN1C(=O)[C@H](CC(=O)N2CCC(n3c(=O)[nH]c4ncccc43)CC2)SC1c1cccc(F)c1N1CCC(O)C1 (stereo partly shown) [Compound 484] | < 1 | < 1
CC(C)(C)CCN1C(=O)[C@H](CC(=O)N2CCC(N3CCc4ccccc4NC3=O)CC2)SC1c1cccc(F)c1N1CC[C@H](O)C1 (stereo partly shown) [Compound 485] | 1 to 5 | < 1
CC(C)(C)CCN1C(=O)[C@H](CC(=O)N2CCC(N3CCc4ccccc4NC3=O)CC2)SC1c1cccc(F)c1N1CC[C@H](O)C1 (stereo partly shown) [Compound 486] | < 1 | < 1
CC(C)(C)CCN1C(=O)[C@H](CC(=O)N2CCC(N3CCc4ccccc4NC3=O)CC2)SC1c1cccc(F)c1N1CC[C@@H](O)C1 (stereo partly shown) [Compound 487] | < 1 | < 1
CC(C)(C)N1CCN(c2c(F)cccc2[C@@H]2S[C@@H](CC(=O)N3CCC(N4CCc5ccccc5NC4=O)CC3)C(=O)N2CC2CC2)CC1 [Compound 488] | < 1 | < 1
CC(C)(C)CCN1C(=O)[C@H](CC(=O)N2CCC(N3CCc4ccccc4NC3=O)CC2)SC1c1ccn(C2CCN(C(=O)OC(C)(C)C)CC2)n1 (stereo partly shown) [Compound 490] | > 5 | < 1
